Source: the supplement of paper PMC10307832

Experiments:
Experiment in all cases: relative viability (nuclei count vs DMSO), 5 days (fraction); higher = more cells survive
[1] = compound: Cn1c(Nc2ccc(C(F)(F)F)cc2)nc2cc(Oc3ccnc(-c4ncc(C(F)(F)F)[nH]4)c3)ccc21 [RAF265] + CC(=O)Nc1cccc(-n2c(=O)n(C3CC3)c(=O)c3c(Nc4ccc(I)cc4F)n(C)c(=O)c(C)c32)c1 [Trametinib] (partner 0.02 µM)
Procedure, shortened: (§1)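 Lung cancer cell lines in 1536-well plates were dosed by pin tool the day after seeding, either with one drug alone or with a fixed anchor-drug dose plus five library-drug doses (not always all listed) in √10 steps. After 5 days, cells were fixed and their nuclei stained in one step (final 0.05% Triton X-100, 1% formaldehyde, 1 ug/ml Hoechst), then counted on 4× images. Relative viability is the nuclei count in treated wells divided by that in vehicle wells. Values are medians of duplicate plates.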

[2] = compound: Cc1ccc(-n2nc(C(C)(C)C)cc2NC(=O)Nc2ccc(OCCN3CCOCC3)c3ccccc23)cc1 [Doramapimod] + CC1(C)CCC(c2ccc(Cl)cc2)=C(CN2CCN(c3ccc(C(=O)NS(=O)(=O)c4ccc(N[C@H](CCN5CCOCC5)CSc5ccccc5)c(S(=O)(=O)C(F)(F)F)c4)cc3)CC2)C1 [Navitoclax] (partner 0.5 µM)
Procedure, shortened: as §1

[3] = compound: C1=CC=C2C(=C1)C=CC(=C2SSC3=C(C=CC4=CC=CC=C43)O)O [IPA-3] + COc1cc2c(Oc3ccc(NC(=O)C4(C(=O)Nc5ccc(F)cc5)CC4)cc3F)ccnc2cc1OCCCN1CCOCC1 [Foretinib] (partner 0.25 µM)
Procedure, shortened: as §1

[4] = compound: Cc1ccc(-n2nc(C(C)(C)C)cc2NC(=O)Nc2ccc(OCCN3CCOCC3)c3ccccc23)cc1 [Doramapimod] + Cc1nc(NC(=O)N2CCC[C@H]2C(N)=O)sc1-c1ccnc(C(C)(C)C(F)(F)F)c1 [Alpelisib] (partner 2 µM)
Procedure, shortened: as §1

Row | Cell Line | relative viability ([1]; first compound 0.01 µM) | relative viability ([1]; first compound 0.03162 µM) | relative viability ([1]; first compound 0.1 µM) | relative viability ([1]; first compound 0.3162 µM) | relative viability ([1]; first compound 1 µM) | relative viability ([2]; first compound 0.02 µM) | relative viability ([2]; first compound 0.06325 µM) | relative viability ([2]; first compound 0.2 µM) | relative viability ([2]; first compound 0.6325 µM) | relative viability ([2]; first compound 2 µM) | relative viability ([3]; first compound 0.2 µM) | relative viability ([3]; first compound 0.6325 µM) | relative viability ([3]; first compound 2 µM) | relative viability ([3]; first compound 6.325 µM) | relative viability ([3]; first compound 20 µM) | relative viability ([4]; first compound 0.02 µM) | relative viability ([4]; first compound 0.06325 µM) | relative viability ([4]; first compound 0.2 µM) | relative viability ([4]; first compound 0.6325 µM) | relative viability ([4]; first compound 2 µM)
1 | NCI-H2228 | 0.651 | 0.58 | 0.423 | 0.201 | 0.247 | 0.669 | 0.786 | 1.05 | 0.913 | 0.605 | 0.979 | 0.805 | 0.842 | 1.07 | 1.22 | 0.911 | 0.518 | 0.619 | 0.753 | 0.649
2 | NCI-H2347 | 0.266 | 0.292 | 0.283 | 0.22 | 0.227 | 0.947 | 0.726 | 0.793 | 0.761 | 0.821 | 1.24 | 0.916 | 0.908 | 0.902 | 0.899 | 1.09 | 0.926 | 1.06 | 1.05 | 0.957
3 | NCI-H2405 | 0.605 | 0.639 | 0.539 | 0.474 | 0.383 | 0.901 | 0.831 | 0.812 | 1.33 | 0.804 | 1.12 | 1.07 | 1.07 | 1.07 | 1.06 | 0.82 | 0.718 | 0.715 | 1.18 | 0.678
4 | NCI-H3122 | 0.26 | 0.203 | 0.21 | 0.208 | 0.173 | 1.03 | 0.992 | 1 | 1.09 | 0.914 | 1.01 | 0.958 | 0.941 | 0.955 | 1.06 | 0.952 | 0.831 | 0.756 | 0.776 | 0.863
5 | PC-3 [JPC-3] | 0.708 | 0.708 | 0.761 | 0.469 | 0.466 | 0.923 | 0.767 | 0.737 | 0.869 | 0.723 | 1.06 | 0.975 | 1.04 | 0.965 | 1 | 1.15 | 1.01 | 1.09 | 1.11 | 0.978
6 | PC-14 | 0.814 | 0.711 | 0.716 |  | 0.447 | 1.02 | 1.02 | 0.935 | 1.09 | 0.799 | 1.07 | 0.938 | 0.941 | 0.874 | 1.07 | 1.01 | 1.06 | 0.892 | 0.995 | 0.89
7 | RERF-LC-KJ | 0.877 | 0.764 | 0.867 | 0.638 | 0.546 | 1.09 | 1.35 | 0.858 | 0.853 | 1.01 | 1.02 | 0.913 | 0.868 | 0.847 | 1.04 | 0.857 | 0.865 | 0.765 | 1.01 | 0.867
8 | SK-LU-1 | 0.559 | 0.419 | 0.393 | 0.274 | 0.257 | 0.544 | 1 | 0.821 | 1.01 | 0.7 | 1.01 | 0.78 | 0.908 | 0.828 | 0.911 | 0.901 | 0.925 | 1.14 | 1.19 | 0.866
9 | SK-MES-1 | 0.601 | 0.531 | 0.443 | 0.317 | 0.285 | 1.16 | 1.25 | 1.23 | 1.25 | 0.99 | 0.982 | 0.889 | 0.892 | 0.953 | 1.22 | 0.87 | 0.765 | 0.766 | 0.869 | 0.675
10 | SW 1573 | 0.665 | 0.597 | 0.556 | 0.54 | 0.255 | 1.11 | 0.83 | 1.05 | 0.78 | 0.789 | 1.06 | 0.83 | 0.806 | 0.808 | 0.893 | 0.766 | 0.712 | 0.644 | 0.726 | 0.549
